The source of these data is patent US8026232B2, “Benzothiophene oxide derivative and salt thereof” (Toyama Chemical Co., Ltd., priority 2008, dated 2011).

Counter-ions that a name gives are not always drawn.

The nature of the data set: Test Example 1: concentration of compound A in plasma and brain after oral administration to rats. The class given is in vivo, rat. The settings on record: for Brain MRT (mean residence time) of the compound A / Brain T1/2 (elimination half-life) of the compound A / Plasma MRT (mean residence time) of the compound A / Plasma T1/2 (elimination half-life) of the compound A: rat (Crl: CD male), oral, without fasting, 56 mg/kg compound A maleate or 58 mg/kg compound A oxide maleate; for Brain MRT (mean residence time) of the compound A / Brain T1/2 (elimination half-life) of the compound A: compound A measured in brain; for Plasma MRT (mean residence time) of the compound A / Plasma T1/2 (elimination half-life) of the compound A: compound A measured in plasma. On the procedure: In the compound A administration solution, the concentration of the compound A maleate was adjusted to be 14 mg/mL by dissolving the compound A maleate in a physiological saline solution. In the compound A oxide administration solution, the concentration of the compound A oxide maleate was adjusted to be 14.54 mg/mL by dissolving the compound A oxide maleate in a physiological saline solution.
Each of the administration solutions was orally administered to rats (Crl: CD strain male rat: 8 weeks old) without fasting. The dosage was set at 56 mg/kg for the compound A administration group and 58 mg/kg for the compound A oxide administration group.
At 0.25, 0.5, 1, 2, 5, 8, 10 and 12 hours after the administration, for each group, heparinized whole blood was collected from the aorta abdominalis under mild ether anesthesia, and then the rats were killed by exsanguination and the brains were excised.
The collected blood was centrifuged at 4° C. for 10 minutes at approximately 1600×g to obtain the plasma. To 100 μL of the resulting plasma was added 900 μL of distilled water containing 25 ng/mL of the internal standard substance and 25 μL of phosphoric acid, and the resulting mixture was stirred, followed by adding to a solid-phase extraction plate (Oasis HLB 10 mg or 30 mg, manufactured by Waters) which was conditioned with methanol and distilled water. The solid-phase extraction plate was washed with 2 mL of distilled water, followed by eluting with 2 mL of acetonitrile. The eluate was concentrated and dried-up and then dissolved in a mobile phase A solution, followed by centrifuging at 4° C. for 10 minutes at approximately 1600×g. The resulting supernatant was subjected to a liquid chromatography-tandem mass spectrometer to determine the concentration of the compound A in the plasma of each group.
The excised brains were homogenized with 25% ammonia water/methanol (1:49) (10-fold volume of the wet brain weight) and then 2 mL of the homogenate was centrifuged at 4° C. for 10 minutes at approximately 1600×g to separate the supernatant. To the sediment was added 2 mL of 25% ammonia water/methanol (1:49), followed by centrifuging at 4° C. for 10 minutes at approximately 1600×g. These supernatants were combined and concentrated and dried-up and then dissolved in 1 mL of distilled water containing 25 ng/mL of the internal standard substance. To the resulting solution was added 25 μL of phosphoric acid and the resulting mixture was stirred, followed by subjecting to a solid-phase extraction operation similar to that for the above plasma. The resulting eluate was concentrated and dried-up and then dissolved in the mobile phase A solution or 50% methanol, followed by centrifuging at 4° C. for 10 minutes at approximately 1600×g. The resulting supernatant was subjected to the liquid chromatography-tandem mass spectrometer to determine the concentration of the compound A in the brain of each group.
The following instruments and conditions were used for the measurement of the concentration of the compound A.

Setting [1] is: rat, oral administration of the compound A oxide, result in words.

`[O-][s+]1ccc2cc(CCOCCCN3CC(O)C3)ccc21` (stereo not shown) [Compound A oxide Maleate, 1-(3-(2-(1-benzothiophen-5-yl)ethoxy)propyl)azetidin-3-ol S-oxide maleate]: the “Brain MRT (mean residence time) of the compound A” value is 5.72 h, the “Brain T1/2 (elimination half-life) of the compound A” value came to 2.28 h, the “Plasma MRT (mean residence time) of the compound A” value was found to be 5.41 h and the “Plasma T1/2 (elimination half-life) of the compound A” value is 2.69 h.

Consider `[O-][s+]1ccc2cc(CCOCCCN3CC(O)C3)ccc21` (stereo not shown) [compound A oxide, 1-(3-(2-(1-benzothiophen-5-yl)ethoxy)propyl)azetidin-3-ol S-oxide], for which, under setting [1], the “concentration of the compound A in the plasma and brain” value is “maintained at a high concentration”; the “residence time of the compound A in the body” value is recorded as “prolonged”.

As to `O=C(O)/C=C\C(=O)O.OC1CN(CCCOCCc2ccc3sccc3c2)C1` [Compound A Maleate, 1-(3-(2-(1-benzothiophen-5-yl)ethoxy)propyl)azetidin-3-ol maleate, reference compound], the “Brain MRT (mean residence time) of the compound A” value came out at 3.01 h, the “Brain T1/2 (elimination half-life) of the compound A” value came out at 1.53 h, the “Plasma MRT (mean residence time) of the compound A” value was determined as 2.86 h and the “Plasma T1/2 (elimination half-life) of the compound A” value is 1.56 h.
